For the test, the target named is T1, hTLR7 (Homo sapiens, UniProt Q9NYK1).
T1 construct: expressed in transfected cells; host or cells: HEK-Blue hTLR7 reporter cell line
T1 sequence (Q9NYK1 27-1049): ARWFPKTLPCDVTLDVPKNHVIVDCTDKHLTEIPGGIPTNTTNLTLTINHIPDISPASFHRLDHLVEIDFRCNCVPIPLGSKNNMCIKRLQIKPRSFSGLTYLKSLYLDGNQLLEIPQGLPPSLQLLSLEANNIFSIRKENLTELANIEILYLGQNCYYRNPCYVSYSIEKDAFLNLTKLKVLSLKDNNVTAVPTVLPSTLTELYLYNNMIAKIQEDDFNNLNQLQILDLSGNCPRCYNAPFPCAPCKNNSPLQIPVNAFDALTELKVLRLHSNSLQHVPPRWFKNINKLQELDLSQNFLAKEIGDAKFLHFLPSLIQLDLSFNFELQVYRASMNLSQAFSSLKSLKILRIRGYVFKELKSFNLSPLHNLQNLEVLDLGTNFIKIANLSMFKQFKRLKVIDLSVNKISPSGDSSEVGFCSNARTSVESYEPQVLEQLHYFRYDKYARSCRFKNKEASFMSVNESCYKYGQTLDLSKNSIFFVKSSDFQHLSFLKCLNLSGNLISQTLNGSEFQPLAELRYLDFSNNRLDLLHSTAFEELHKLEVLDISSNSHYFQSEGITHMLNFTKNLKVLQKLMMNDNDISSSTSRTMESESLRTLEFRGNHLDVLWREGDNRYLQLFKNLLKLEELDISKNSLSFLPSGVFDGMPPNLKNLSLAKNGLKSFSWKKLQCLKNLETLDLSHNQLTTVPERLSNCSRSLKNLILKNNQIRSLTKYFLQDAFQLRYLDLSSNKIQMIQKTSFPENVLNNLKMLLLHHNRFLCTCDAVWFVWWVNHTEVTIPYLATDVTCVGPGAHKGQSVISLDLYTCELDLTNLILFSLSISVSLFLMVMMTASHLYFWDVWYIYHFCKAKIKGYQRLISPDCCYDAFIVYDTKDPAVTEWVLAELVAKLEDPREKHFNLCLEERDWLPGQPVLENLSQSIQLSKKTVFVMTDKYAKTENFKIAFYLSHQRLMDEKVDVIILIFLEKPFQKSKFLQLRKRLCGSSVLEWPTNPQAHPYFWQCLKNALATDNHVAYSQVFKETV
Kind of test: HEK-Blue hTLR7 reporter assay (NF-kB-induced SEAP, Quanti-Blue). Type of test: cell-based. The protocol: HEK-Blue™ hTLR7 cells were incubated in HEK-Blue™ Detection medium and stimulated with increasing concentrations of TLR7 or TLR8 or TLR7/8 agonists. […] The EC50 was determined from dose-response curve using Prism Software.

[1] abbreviates: Table 12, TLR7 agonists attached to a linker, read-out: TLR Agonist Payload + Linkers EC50.
[2] abbreviates: Table 15, drug linker, read-out: TLR Agonist + Linker (DL) - EC50.
Setting [3] is: Table 15, pAF containing final metabolite, read-out: TLR Agonist + Linker + nnAA (DL-pAF) - EC50.
Setting [4] is: Table 11, TLR7 activities, read-out: EC50.

SMILES strings stand for the structures. Read-outs that look alike come from different tables or passages of the source. A value given as a limit tells only on which side of the number the result lay.

Results on 13 compounds are retold here after patent publication US20230302150A1, “ANTIBODY-TLR AGONIST CONJUGATES, METHODS AND USES THEREOF” (Ambrx, Inc., priority 2020, published 2023).

For the compound `CCCCc1nc2c(N)nc3ccccc3c2n1CCCCNC(=O)c1cccc(N)c1` [AXC-803, 3-amino-N-(4-(4-amino-2-butyl-1H-imidazo[4,5-c]quinolin-1-yl)butyl)benzamide], the EC50 (Table 10, read-out: TLR7 EC50) worked out at 332 nM.

In the case of `CCCCc1nc2c(N)nc3ccccc3c2n1CCCCNC(=O)c1ccc(F)c(N)c1` [AXC-804, 3-amino-N-(4-(4-amino-2-butyl-1H-imidazo[4,5-c]quinolin-1-yl)butyl)-4-fluorobenzamide], the EC50 (Table 10, read-out: TLR7 EC50) amounted to 260 nM.

`CCCCCNc1nc(N)nc2ccn(Cc3cc(CN4CCN(CCCNC(=O)CON)CC4)ccc3OC)c12` [AXC-860, reference compound]: the EC50 (Table 14, read-out: TLR7 EC50) is 120 nM.

On to `CCCCOc1nc(N)c2[nH]c(=O)n(Cc3ccc(CNC(=O)CON)cc3)c2n1` [AXC-862], for which the concentration giving a half-maximal response (EC50) under setting [1] came out at 400 nM, the EC50 under setting [2] turned out to be 400 nM and the EC50 under setting [3] amounted to 121 nM.

As for `CCCCNc1nc(N)c2[nH]c(=O)n(Cc3ccc(N4CCN(CCNC(=O)CON)CC4)nc3)c2n1` [AXC-867], the EC50 by setting is: under setting [1], 829 nM; under setting [2], 829 nM; under setting [3], 283 nM.

With `CCCCNc1nc(N)c2[nH]c(=O)n(Cc3ccc(NCCN(C)CCNC(=O)CCOCCOCCOCCOCCON)nc3)c2n1` [AXC-869, NH2O-PEG3-Pr-(6-amino-9-((6-(2-((2-aminoethyl)(methyl)amino)ethylamino)pyridin-3-yl)methyl)-2-(butylamino)-7H-purin-8(9H)-one)acetamide], under setting [1], the half-maximal effective concentration (EC50) was more than 10000 nM.

With `CCCCOc1nc(N)c2[nH]c(=O)n(Cc3ccc(N4CCC(CCNC(=O)CCOCCON)CC4)nc3)c2n1` [AXC-876, N-(2-(1-(5-((6-amino-2-butoxy-8-oxo-7H-purin-9(8H)-yl)methyl)pyridin-2-yl)piperidin-4-yl)ethyl)-3-(2-(aminooxy)ethoxy)propanamide], the EC50 came out at 362 nM under setting [1], 362 nM under setting [2] and 245 nM under setting [3].

On to `CCCCOc1nc(N)c2[nH]c(=O)n(Cc3ccc(CN4CCC(CCNC(=O)OC(C)(C)C)CC4)cc3)c2n1` [AXC-877, tert-butyl 2-(1-(4-((6-amino-2-butoxy-8-oxo-7,8-dihydro-9H-purin-9-yl)methyl)benzyl)piperidin-4-yl)ethylcarbamate], for which the EC50 under setting [4] was found to be 5.5 nM and the EC50 (text to Table 11, TLR7, read-out: EC50) was less than 10 nM.

As for `CCCCOc1nc(N)c2[nH]c(=O)n(Cc3ccc(CN4CCC(CCN)CC4)cc3)c2n1` [AXC-878, 6-amino-9-(4-((4-(2-aminoethyl)piperidin-1-yl)methyl)benzyl)-2-butoxy-7H-purin-8(9H)-one], the EC50 under setting [4] is 50.4 nM.

In the case of `CCCCOc1nc(N)c2[nH]c(=O)n(Cc3ccc(CN4CCC(CCNC(=O)CCOCCON)CC4)cc3)c2n1` [AXC-880, N-(2-(1-(4-((6-amino-2-butoxy-8-oxo-7H-purin-9(8H)-yl)methyl)benzyl)piperidin-4-yl)ethyl)-3-(2-(aminooxy)ethoxy)propenamide], the EC50 under setting [1] was 410 nM, the EC50 under setting [2] came out at 410 nM and the EC50 under setting [3] was 167 nM.

In the case of `CCCCOc1nc(N)c2[nH]c(=O)n(Cc3ccc(CNCCCCCCN)cc3)c2n1` [AXC-881, 6-amino-9-(4-((6-aminohexylamino)methyl)benzyl)-2-butoxy-7H-purin-8(9H)-one], the EC50 under setting [4] worked out at 87.3 nM.

For the compound `CCCCOc1nc(N)c2[nH]c(=O)n(Cc3ccc(CNCCCCCCNC(=O)CON)cc3)c2n1` [AXC-882, N-(6-(4-((6-amino-2-butoxy-8-oxo-7H-purin-9(8H)-yl)methyl)benzylamino)hexyl)-2-(aminooxy)acetamide], the EC50 by setting is: under setting [1], 551 nM; under setting [2], 551 nM; under setting [3], 343 nM.

Consider `CCCCOc1nc(N)c2[nH]c(=O)n(Cc3ccc(CN4CCC(CCNC(=O)C(C)(C)NC)CC4)cc3)c2n1` [AXC-884, N-(2-(1-(4-((6-amino-2-butoxy-8-oxo-7H-purin-9(8H)-yl)methyl)benzyl)piperidin-4-yl)ethyl)-2-methyl-2-(methylamino)propanamide], for which the concentration giving a half-maximal response (EC50) under setting [4] came out at 71.3 nM.
